Reference: PMC7694773, “Synthesis, 3D-QSAR, and Molecular Modeling Studies of Triazole Bearing Compounds as a Promising Scaffold for Cyclooxygenase-2 Inhibition” (Pharmaceuticals, 2020)
Values joined by “and” are separate entries in the source; they are usually repeats but may differ in a detail not shown here. Equal values may be shown once. Read-outs that look alike come from different tables or passages of the source.

Legend:
human recombinant COX-2 = target: T1, human recombinant COX-2 (Homo sapiens, UniProt P35354); test: In vitro COX-2 inhibition, enzyme immunoassay kit (Cayman item no. 560131); format: biochemical
T1 construct: purchased Cayman Chemical 560131
T1 sequence (P35354 18-604): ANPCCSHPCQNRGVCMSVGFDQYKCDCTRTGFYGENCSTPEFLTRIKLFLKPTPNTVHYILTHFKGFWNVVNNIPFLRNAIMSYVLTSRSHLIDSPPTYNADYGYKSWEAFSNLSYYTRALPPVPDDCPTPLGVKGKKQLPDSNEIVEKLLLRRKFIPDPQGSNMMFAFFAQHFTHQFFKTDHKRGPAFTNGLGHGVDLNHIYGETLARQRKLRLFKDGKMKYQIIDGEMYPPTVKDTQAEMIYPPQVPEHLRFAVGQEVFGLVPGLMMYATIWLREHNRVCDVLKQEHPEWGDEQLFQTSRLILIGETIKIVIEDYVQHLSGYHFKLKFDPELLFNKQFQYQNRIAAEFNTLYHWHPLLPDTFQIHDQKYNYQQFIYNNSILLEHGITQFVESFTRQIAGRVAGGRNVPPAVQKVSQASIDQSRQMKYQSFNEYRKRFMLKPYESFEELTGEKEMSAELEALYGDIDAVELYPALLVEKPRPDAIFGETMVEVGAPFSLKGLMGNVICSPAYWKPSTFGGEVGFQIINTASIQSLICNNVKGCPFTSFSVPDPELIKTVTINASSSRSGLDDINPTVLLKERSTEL
Text: (§1) The in vitro COX-1/COX-2 isozyme inhibition studies measure the ability of tested compounds to inhibit bovine COX-1 and human recombinant COX-2 using an enzyme immunoassay (COX inhibitor screening assay kit, item no. 560131) according to the manufacturer’s instructions. […].

bovine COX-1 = target: T2, bovine COX-1 (Ovis aries, UniProt P05979); test: In vitro COX-1 inhibition, enzyme immunoassay kit (Cayman item no. 560131); format: biochemical; details: mean of two determinations
T2 construct: purchased Cayman Chemical 560131
T2 sequence (P05979 25-600): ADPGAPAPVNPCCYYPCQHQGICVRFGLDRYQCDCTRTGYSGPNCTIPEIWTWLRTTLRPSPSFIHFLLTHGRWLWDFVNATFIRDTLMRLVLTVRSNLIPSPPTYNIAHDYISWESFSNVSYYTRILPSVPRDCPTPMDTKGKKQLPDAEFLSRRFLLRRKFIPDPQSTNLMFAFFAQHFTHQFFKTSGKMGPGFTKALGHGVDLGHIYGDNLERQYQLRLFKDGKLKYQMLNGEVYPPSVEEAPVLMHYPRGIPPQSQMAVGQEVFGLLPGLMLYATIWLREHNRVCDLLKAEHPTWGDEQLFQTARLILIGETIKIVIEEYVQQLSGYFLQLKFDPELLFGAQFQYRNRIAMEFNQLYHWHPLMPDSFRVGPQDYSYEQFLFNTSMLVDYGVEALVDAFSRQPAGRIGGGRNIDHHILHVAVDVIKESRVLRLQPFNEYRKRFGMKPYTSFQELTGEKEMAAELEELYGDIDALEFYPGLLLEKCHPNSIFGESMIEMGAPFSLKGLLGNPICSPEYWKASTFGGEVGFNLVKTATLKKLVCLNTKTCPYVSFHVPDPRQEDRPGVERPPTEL
Text: as §1

egg albumin = target: T3, egg albumin (Gallus gallus, UniProt P01012); test: In situ anti-inflammatory assay: inhibition of protein (albumin) denaturation; details: for inhibition at 1000 µM / % of inhibition ± SEM at conc. 0.1 / % of inhibition ± SEM at conc. 1 / % of inhibition ± SEM at conc. 10 / % of inhibition ± SEM at conc. 100: protein denaturation, three replicates; for inhibition at 1000 µM: conc. 1000 µM, read-out: % of inhibition ± SEM at conc. 1000; for % of inhibition ± SEM at conc. 0.1: conc. 0.1 (µM); for % of inhibition ± SEM at conc. 1: conc. 1 (µM); for % of inhibition ± SEM at conc. 10: conc. 10 (µM); for % of inhibition ± SEM at conc. 100: conc. 100 (µM)
T3 sequence (P01012 1-386): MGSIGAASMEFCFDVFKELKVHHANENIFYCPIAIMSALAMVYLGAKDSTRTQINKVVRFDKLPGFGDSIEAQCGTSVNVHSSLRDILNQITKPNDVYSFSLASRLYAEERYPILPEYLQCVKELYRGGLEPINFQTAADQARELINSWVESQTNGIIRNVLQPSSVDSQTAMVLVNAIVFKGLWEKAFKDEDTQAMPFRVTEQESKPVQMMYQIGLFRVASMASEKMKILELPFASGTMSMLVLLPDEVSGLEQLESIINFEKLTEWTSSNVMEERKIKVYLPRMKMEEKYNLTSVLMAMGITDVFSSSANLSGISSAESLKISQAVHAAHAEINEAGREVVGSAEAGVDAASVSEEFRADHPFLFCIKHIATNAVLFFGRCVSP
Description: Protein denaturation is used for the evaluation of anti-inflammatory activity. In this methodology, generally, tertiary and secondary protein structures will typically be destroyed by the application of an external molecule or stress. The biological function of most bio-proteins is lost if it is denatured. It is well reported that a basis of inflammation is denaturation of protein.
The reaction mixture is molecules with serial dilutions (1000, 100, 10, 1, 0.1 µM), phosphate buffered saline (PBS; pH 6.4), and egg albumin. The control used was double distilled water (equal volume). […] After attaining ambient temperature, the absorbance of samples was measured spectrophotometrically at 660 nm using vehicle as blank. […] The experiment was performed in triplicate. Percent inhibition of protein denaturation was calculated using the Equation Inhibition (%) of protein denaturation inhibition (%) = (AC − AS)/AC × 100 where AC: absorbance of control, AS: absorbance of sample.

[1] = human recombinant COX-2, mean of two determinations, read-out: IC50 COX-2
[2] = pIC50 = −Log (IC50) of the COX-2 IC50, read-out: Activity (experimental pIC50, COX-2) (converted)

| Structure (SMILES) | melting point [°C] | COX-2 S.I. (selectivity index, COX-1 IC50/COX-2 IC50) (human recombinant COX-2) | IC50 (human recombinant COX-2; [1]) [nM] | IC50 (human recombinant COX-2; [2]) | IC50 (bovine COX-1) [nM] | inhibition at 1000 µM (egg albumin) [%] | % of inhibition ± SEM at conc. 0.1 (egg albumin) [%] | % of inhibition ± SEM at conc. 1 (egg albumin) [%] | % of inhibition ± SEM at conc. 10 (egg albumin) [%] | % of inhibition ± SEM at conc. 100 (egg albumin) [%] | LogIC50 protein denaturation (egg albumin; GraphPad prism curve fit, IC50 in µM (Figure 3)) | IC50 (egg albumin; non-linear regression, sigmoidal dose-inhibition fit, GraphPad prism) |
| --- | --- | --- | --- | --- | --- | --- | --- | --- | --- | --- | --- | --- |
| Nc1ncc(Sc2nnc(COc3ccc4ccccc4c3)n2N=Cc2ccccc2O)o1 [Compound 11b, 2-(((3-((2-aminooxazol-5-yl)thio)-5-((naphthalen-2-yloxy)methyl)-4H-1,2,4-triazol-4-yl)imino)methyl)phenol] | 80 to 81 | 119.2 | 90 | 89.9 nM | 10700 | – | – | – | – | – | – | – |
| O=C(CCl)Sc1nnc(COc2ccc3ccccc3c2)n1N=Cc1ccccc1O [Compound 10b] | – | 70.6 | 140 | 140 nM | 9890 | – | – | – | – | – | – | – |
| O=C(CCl)Sc1nnc(COc2ccc3ccccc3c2)n1N=Cc1cccc([N+](=O)[O-])c1 [Compound 10c] | – | 84.3 | 120 | 120 nM | 10100 | – | – | – | – | – | – | – |
| O=[N+]([O-])c1cccc(C=Nn2c(S)nnc2COc2ccc3ccccc3c2)c1 [Compound 9c, 5-((naphthalen-2-yloxy)methyl)-4-((3-nitrobenzylidene)amino)-4H-1,2,4-triazole-3-thiol] | 200 to 202 | 72.5 | 130 | 130 nM | 9430 | – | – | – | – | – | – | – |
| Nc1ncc(Sc2nnc(COc3ccc4ccccc4c3)n2N=Cc2cccc([N+](=O)[O-])c2)o1 [Compound 11c, 5-((5-((naphthalen-2-yloxy)methyl)-4-((3-nitrobenzylidene)amino)-4H-1,2,4-triazol-3-yl)thio)oxazol-2-amine] | 196 to 198 | 252.6 | 50 | 50 nM and 49 nM | 12600 | – | – | – | – | – | – | – |
| COc1ccc(C=Nn2c(COc3ccc4ccccc4c3)nnc2SC(=O)CCl)cc1 [Compound 10d] | – | 94.1 | 110 | 110 nM | 10300 | – | – | – | – | – | – | – |
| Oc1ccccc1C=Nn1c(S)nnc1COc1ccc2ccccc2c1 [Compound 9b, 2-(((3-mercapto-5-((naphthalen-2-yloxy)methyl)-4H-1,2,4-triazol-4-yl)imino)methyl)phenol] | 208 to 219 | 40.4 | 190 | 190 nM | 7670 | – | – | – | – | – | – | – |
| O=C(CCl)Sc1nnc(COc2ccc3ccccc3c2)n1N=Cc1ccccc1 [Compound 10a] | – | 74.8 | 130 | 130 nM | 9720 | – | – | – | – | – | – | – |
| Sc1nnc(COc2ccc3ccccc3c2)n1N=Cc1ccccc1 [Compound 9a, 4-(benzylideneamino)-5-((naphthalen-2-yloxy)methyl)-4H-1,2,4-triazole-3-thiol] | 184 to 186 | 31.5 | 220 | 220 nM | 6930 | – | – | – | – | – | – | – |
| Nc1ncc(Sc2nnc(COc3ccc4ccccc4c3)n2N=Cc2ccccc2)o1 [Compound 11a, 5-((4-(benzylideneamino)-5-((naphthalen-2-yloxy)methyl)-4H-1,2,4-triazol-3-yl)thio)oxazol-2-amine] | 162 to 164 | 154.6 | 80 | 80 nM | 12400 | – | – | – | – | – | – | – |

Continued, values first:

| melting point [°C] | COX-2 S.I. (selectivity index, COX-1 IC50/COX-2 IC50) (human recombinant COX-2) | IC50 (human recombinant COX-2; [1]) [nM] | IC50 (human recombinant COX-2; [2]) | IC50 (bovine COX-1) [nM] | inhibition at 1000 µM (egg albumin) [%] | % of inhibition ± SEM at conc. 0.1 (egg albumin) [%] | % of inhibition ± SEM at conc. 1 (egg albumin) [%] | % of inhibition ± SEM at conc. 10 (egg albumin) [%] | % of inhibition ± SEM at conc. 100 (egg albumin) [%] | LogIC50 protein denaturation (egg albumin; GraphPad prism curve fit, IC50 in µM (Figure 3)) | IC50 (egg albumin; non-linear regression, sigmoidal dose-inhibition fit, GraphPad prism) | Structure (SMILES) |
| --- | --- | --- | --- | --- | --- | --- | --- | --- | --- | --- | --- | --- |
| 182 to 184 | 325.0 and 311.8 | 40 | 40.1 nM | 12500 | – | – | – | – | – | – | – | Nc1ncc(Sc2nnc(COc3ccc4ccccc4c3)n2N=Cc2cccc([N+](=O)[O-])c2)s1 [Compound 12c, 5-((5-((naphthalen-2-yloxy)methyl)-4-((3-nitrobenzylidene)amino)-4H-1,2,4-triazol-3-yl)thio)thiazol-2-amine] |
| – | – | – | – | – | 94.2 | 32.14±1.01 | 61.45±1.21 | 67.32±0.95 | 82.43±1.87 | – | – | O=C(O)Cc1ccccc1Nc1c(Cl)cccc1Cl [Diclofenac sodium, reference compound] |
| 77 to 78 | 202.0 and 202.2 | 60 | 60.1 nM | 12100 | – | – | – | – | – | – | – | Nc1ncc(Sc2nnc(COc3ccc4ccccc4c3)n2N=Cc2ccccc2O)s1 [Compound 12b, 2-(((3-((2-aminothiazol-5-yl)thio)-5-((naphthalen-2-yloxy)methyl)-4H-1,2,4-triazol-4-yl)imino)methyl)phenol] |
| 69 to 70 | 311.0 and 325.0 | 40 | 41.8 nM and 40.1 nM | 13000 | 91.2 | 29.21±1.12 | 59.20±1.34 | 72.12±1.27 | 89.31±1.26 | -0.008534 | 981 nM and 980 nM | COc1ccc(C=Nn2c(COc3ccc4ccccc4c3)nnc2Sc2cnc(N)s2)cc1 [Compound 12d, 5-((4-((4-methoxybenzylidene)amino)-5-((naphthalen-2-yloxy)methyl)-4H-1,2,4-triazol-3-yl)thio)thiazol-2-amine] |
| 145 to 146 | 98.3 | 100 | 100 nM | 9830 | – | – | – | – | – | – | – | Nc1ncc(Sc2nnc(COc3ccc4ccccc4c3)n2N=Cc2ccccc2)s1 [Compound 12a, 5-((4-(benzylideneamino)-5-((naphthalen-2-yloxy)methyl)-4H-1,2,4-triazol-3-yl)thio)thiazol-2-amine] |
| 70 to 71 | 192.2 | 60 | 60.1 nM | 11500 | – | – | – | – | – | – | – | COc1ccc(C=Nn2c(COc3ccc4ccccc4c3)nnc2Sc2cnc(N)o2)cc1 [Compound 11d, 5-((4-((4-methoxybenzylidene)amino)-5-((naphthalen-2-yloxy)methyl)-4H-1,2,4-triazol-3-yl)thio)oxazol-2-amine] |
